Earlier results in US8679533B2, “Pramipexole once-daily dosage form” (Pharmacia Corporation, priority 2002, dated 2014).

Conditions: dihydrochloride salt, 20-25° C.

CCCN[C@H]1CCc2nc(N)sc2C1 [pramipexole, (S)-2-amino-4,5,6,7-tetrahydro-6-(propylamino)-benzothiazole]
solubility in water: about 200 mg/ml
